Assay results from patent US9290453B2 (Merck Sharp & Dohme Corp., priority 2010, dated 2016).
pKi: −log10 of the molar value.

target: T1, hCRTH2 (Homo sapiens, UniProt Q9Y5Y4); experiment: Radioligand Binding Assay B (scintillation proximity assay, [3H]-PGD2, HEK-hCRTH2 membranes); details: Radioligand Binding Assay B (SPA), values in text
T1 construct: expressed in transfected cells; host or cells: HEK (human embryonic kidney) cells expressing hCRTH2
T1 sequence (Q9Y5Y4 1-395): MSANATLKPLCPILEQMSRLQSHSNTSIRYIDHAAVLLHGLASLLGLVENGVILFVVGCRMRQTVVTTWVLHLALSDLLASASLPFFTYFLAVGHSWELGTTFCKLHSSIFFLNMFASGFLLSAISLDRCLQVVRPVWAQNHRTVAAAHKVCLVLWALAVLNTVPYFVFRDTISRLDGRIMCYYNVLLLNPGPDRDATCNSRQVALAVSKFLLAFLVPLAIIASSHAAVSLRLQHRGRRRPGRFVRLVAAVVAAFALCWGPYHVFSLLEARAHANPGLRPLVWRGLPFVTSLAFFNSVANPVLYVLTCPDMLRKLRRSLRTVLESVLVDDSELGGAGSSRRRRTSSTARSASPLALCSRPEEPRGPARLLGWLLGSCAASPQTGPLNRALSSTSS
Description: Radioligand binding also was performed using scintillation proximity assay (SPA) technology in a similar way as described above in Radioligand Binding Assay A with minor modification. Assays were done at room temperature in 10 mM HEPES pH 7.4, 1 mM EDTA containing 2 mM MnCl2 and 16 nM [^3H]-PGD2 (PerkinElmer, Waltham, Mass.) (164 Ci mmol^−1), in a final volume of 0.05 mL. Competing ligands were diluted in dimethylsulfoxide (Me2SO) and added using very low volumes (50 nL). The reaction was initiated by the addition of a mixture of 3.52 μg of membrane protein prepared from a human embryonic kidney (HEK)-hCRTH2 cell line adhered to 140 ug of wheatgerm agglutinin SPA beads (PerkinElmer). Total and non-specific binding were determined in the absence and the presence of 10 μM of a CRTH2 antagonist, respectively. The reaction was routinely conducted for 60 min at room temperature followed by centrifugation for 5 minutes at 1000 RPM. The radioactivity was measured with a TopCountNXT (PerkinElmer). Results determined using the SPA-based assay were similar to those from the filtration binding assay.

pKi | SMILES
8.13 | Cc1cccc(N2CCN(C(=O)c3ccc4nc(-c5ccc(Cl)cc5)c(CCCCC(=O)O)cc4c3)CC2)c1 [Compound 5BR, 5-(2-(4-chlorophenyl)-6-(4-(m-tolyl)piperazine-1-carbonyl)quinolin-3-yl)pentanoic acid]
8.14 | Cc1ccccc1N1CCN(C(=O)c2ccc3nc(-c4ccc(F)cc4)c(CCCCC(=O)O)cc3c2)CC1 [Compound 5AT, 5-(2-(4-fluorophenyl)-6-(4-(o-tolyl)piperazine-1-carbonyl)quinolin-3-yl)pentanoic acid]

same assay, conditions: Table B, Radioligand Binding Assay B (SPA), rated A-D

pKi | SMILES
7.70 to 8.68 | COc1ccccc1C1CCN(C(=O)c2ccc3nc(-c4ccc(F)cc4)c(CCCCC(=O)O)cc3c2)CC1 [Compound 5AP, 5-(2-(4-fluorophenyl)-6-(4-(2-methoxyphenyl)piperidine-1-carbonyl)quinolin-3-yl)pentanoic acid]
7.70 to 8.68 | O=C(O)CCCCc1cc2cc(C(=O)N3CCC4(CC3)OCc3ccccc34)ccc2nc1-c1ccc(Cl)cc1 [Compound 5Bo, 5-(2-(4-chlorophenyl)-6-(3H-spiro[isobenzofuran-1,4′-piperidin]-1′-ylcarbonyl)quinolin-3-yl)pentanoic acid]
7.70 to 8.68 | CC1(C)CCC(NC(=O)c2ccc3nc(-c4ccc(F)cc4)c(CCCCC(=O)O)cc3c2)c2ccccc21 (stereo not shown) [Compound 5AK, 5-(6-((4,4-dimethyl-1,2,3,4-tetrahydronaphthalen-1-yl)carbamoyl)-2-(4-fluorophenyl)quinolin-3-yl)pentanoic acid]
7.70 to 8.68 | Cc1ccccc1N1CCN(C(=O)c2ccc3nc(-c4ccccc4)c(CCCCC(=O)O)cc3c2)CC1 [Compound 1BB, 5-(2-phenyl-6-(4-(o-tolyl)piperazine-1-carbonyl)quinolin-3-yl)pentanoic acid]
7.70 to 8.68 | O=C(O)CCCCc1cc2cc(C(=O)N3CC[C@@H](c4ccccc4)C3)ccc2nc1-c1ccc(F)cc1 [Compound 5AH, (S)-5-(2-(4-fluorophenyl)-6-(3-phenylpyrrolidine-1-carbonyl)quinolin-3-yl)pentanoic acid]
7.70 to 8.68 | CC1(C)CC(NC(=O)c2ccc3nc(-c4ccc(F)cc4)c(CCCCC(=O)O)cc3c2)c2ccccc2O1 (stereo not shown) [Compound 5AJ, 5-(6-((2,2-dimethylchroman-4-yl)carbamoyl)-2-(4-fluorophenyl)quinolin-3-yl)pentanoic acid]
7.70 to 8.68 | N#Cc1ccccc1N1CCN(C(=O)c2ccc3nc(-c4ccccc4)c(CCCCC(=O)O)cc3c2)CC1 [Compound 1AZ, 5-(6-(4-(2-cyanophenyl)piperazine-1-carbonyl)-2-phenylquinolin-3-yl)pentanoic acid]
6.70 to 7.70 | O=C(O)CCCCc1cc2cc(C(=O)N3CCN(c4ccccn4)CC3)ccc2nc1-c1ccccc1 [Compound 1AW, 5-(2-phenyl-6-(4-(pyridin-2-yl)piperazine-1-carbonyl)quinolin-3-yl)pentanoic acid]
7.70 to 8.68 | N#Cc1ccccc1N1CCN(C(=O)c2ccc3nc(-c4ccc(F)cc4)c(CCCCC(=O)O)cc3c2)CC1 [Compound 5Ao, 5-(6-(4-(2-cyanophenyl)piperazine-1-carbonyl)-2-(4-fluorophenyl)quinolin-3-yl)pentanoic acid]
7.70 to 8.68 | O=C(O)CCCCc1cc2cc(C(=O)N3CCC4(CC3)OCc3ccccc34)ccc2nc1-c1ccc(F)cc1 [Compound 5AQ, 5-(2-(4-fluorophenyl)-6-(3H-spiro[isobenzofuran-1,4′-piperidin]-1′-ylcarbonyl)quinolin-3-yl)pentanoic acid]
7.70 to 8.68 | O=C(O)CCCCc1cc2cc(C(=O)N[C@@H]3CCOc4ccccc43)ccc2nc1-c1ccc(Cl)cc1 [Compound 5BA, (R)-5-(2-(4-chlorophenyl)-6-(chroman-4-ylcarbamoyl)quinolin-3-yl)pentanoic acid]
7.70 to 8.68 | O=C(O)CCCCc1cc2cc(C(=O)N3CCC4(CC3)OCc3ccccc34)ccc2nc1-c1ccccc1 [Compound 1AV, 5-(2-phenyl-6-(3H-spiro[isobenzofuran-1,4′-piperidin]-1′-ylcarbonyl)quinolin-3-yl)pentanoic acid]
7.70 to 8.68 | O=C(O)CCCCc1cc2cc(C(=O)N3CCN(c4ccccc4)CC3)ccc2nc1-c1ccc(Cl)cc1 [Compound 5BD, 5-(2-(4-chlorophenyl)-6-(4-phenylpiperazine-1-carbonyl)quinolin-3-yl)pentanoic acid]
7.70 to 8.68 | O=C(O)CCCCc1cc2cc(C(=O)NC3CC(=O)Nc4ccccc43)ccc2nc1-c1ccc(F)cc1 (stereo not shown) [Compound 5AL, 5-(2-(4-fluorophenyl)-6-((2-oxo-1,2,3,4-tetrahydroquinolin-4-yl)carbamoyl)quinolin-3-yl)pentanoic acid]
7.70 to 8.68 | O=C(O)CCCCc1cc2cc(C(=O)N[C@@H]3COc4ccccc43)ccc2nc1-c1ccc(Cl)cc1 [Compound 5BB, (S)-5-(2-(4-chlorophenyl)-6-((2,3-dihydrobenzofuran-3-yl)carbamoyl)quinolin-3-yl)pentanoic acid]
7.70 to 8.68 | Cc1cccc(N2CCN(C(=O)c3ccc4nc(-c5ccc(Cl)cc5)c(CCCCC(=O)O)cc4c3)CC2)c1 [Compound 5BR, 5-(2-(4-chlorophenyl)-6-(4-(m-tolyl)piperazine-1-carbonyl)quinolin-3-yl)pentanoic acid]
7.70 to 8.68 | O=C(O)CCCCc1cc2cc(C(=O)N3CC[C@@H](c4ccccc4)C3)ccc2nc1-c1ccc(Cl)cc1 [Compound 5BF, (S)-5-(2-(4-chlorophenyl)-6-(3-phenylpyrrolidine-1-carbonyl)quinolin-3-yl)pentanoic acid]
7.70 to 8.68 | Cc1cccc(N2CCN(C(=O)c3ccc4nc(-c5ccc(F)cc5)c(CCCCC(=O)O)cc4c3)CC2)c1 [Compound 5AU, 5-(2-(4-fluorophenyl)-6-(4-(m-tolyl)piperazine-1-carbonyl)quinolin-3-yl)pentanoic acid]
6.70 to 7.70 | CN(Cc1ccc(F)cc1)C(=O)c1ccc2nc(-c3ccccc3)c(CCCCC(=O)O)cc2c1 [Compound 1AK, 5-(6-((4-fluorobenzyl)(methyl)carbamoyl)-2-phenylquinolin-3-yl)pentanoic acid]
7.70 to 8.68 | Cc1ccccc1N1CCN(C(=O)c2ccc3nc(-c4ccc(F)cc4)c(CCCCC(=O)O)cc3c2)CC1 [Compound 5AT, 5-(2-(4-fluorophenyl)-6-(4-(o-tolyl)piperazine-1-carbonyl)quinolin-3-yl)pentanoic acid]
7.70 to 8.68 | CC1(C)CCC(NC(=O)c2ccc3nc(-c4ccccc4)c(CCCCC(=O)O)cc3c2)c2ccccc21 (stereo not shown) [Compound 1AQ, 5-(6-((4,4-dimethyl-1,2,3,4-tetrahydronaphthalen-1-yl)carbamoyl)-2-phenylquinolin-3-yl)pentanoic acid]
6.70 to 7.70 | O=C(O)CCCCc1cc2cc(C(=O)N3CCC(n4c(=O)[nH]c5ccccc54)CC3)ccc2nc1-c1ccccc1 [Compound 1AU, 5-(6-(4-(2-oxo-2,3-dihydro-1H-benzo[d]imidazol-1-yl)piperidine-1-carbonyl)-2-phenylquinolin-3-yl)pentanoic acid]
6.70 to 7.70 | O=C(O)CCCCc1cc2cc(C(=O)N3CC[C@H](c4ccc(F)cc4)C3)ccc2nc1-c1ccccc1 [Compound 1AM, (R)-5-(6-(3-(4-fluorophenyl)pyrrolidine-1-carbonyl)-2-phenylquinolin-3-yl)pentanoic acid]
7.70 to 8.68 | O=C(O)CCCCc1cc2cc(C(=O)NC3CC(=O)Nc4ccccc43)ccc2nc1-c1ccc(Cl)cc1 (stereo not shown) [Compound 5BJ, 5-(2-(4-chlorophenyl)-6-((2-oxo-1,2,3,4-tetrahydroquinolin-4-yl)carbamoyl)quinolin-3-yl)pentanoic acid]
6.70 to 7.70 | CC1(C)CC(NC(=O)c2ccc3nc(-c4ccccc4)c(CCCCC(=O)O)cc3c2)c2ccccc2O1 (stereo not shown) [Compound 1AP, 5-(6-((2,2-dimethylchroman-4-yl)carbamoyl)-2-phenylquinolin-3-yl)pentanoic acid]
7.70 to 8.68 | CN(Cc1ccc(F)cc1)C(=O)c1ccc2nc(-c3ccc(Cl)cc3)c(CCCCC(=O)O)cc2c1 [Compound 5BG, 5-(2-(4-chlorophenyl)-6-((4-fluorobenzyl)(methyl)carbamoyl)quinolin-3-yl)pentanoic acid]
